In US20020025929A1, “METHOD OF BUILDING AND MAINTAINING BONE” (priority 1997, published 2002):
Marks after values point to notes of the source that are not given here.

Experiments:
Type in all cases: in vivo, Sprague-Dawley rats
osteopenic rats = assay: Micro-CT of distal femur metaphysis; conditions: continuous treatment, 1a 0.01-1 mg/kg, 17α-ethynyl estradiol 0.1 mg/kg, PTH (1-34), 1a 0.3 mg/kg with PTH (1-34), FIG. 2
Procedure: (§1) The metaphysis of proximal tibiae were scanned longitudinally from baseline, using a 960A pQCT loaded with Dichte software version 5.2 (Norland/Stratec, Ft. Atkinson, Wis.), using the technique described by Sato et al., —1995, JPET 272:1252-1259; Sato 1995, Bone 17:157S-162S). Volumetric bone mineral density (BMD, mg/cm3), cross-sectional area (X-Area), voxel number, and mineral content (BMC, mg) were quantitated for the whole cross-section of the metaphysis. Sites of excised bones were analyzed at higher resolution, using a micro-CT (Stratec). Specifically, distal femora (below the condyles, see Sato et al. 1995) and L-3 vertebra (mid-cross section, Helterbrand et al., 1997, Bone 21:401-409) were analyzed using voxel dimensions of 50 ×50×1000 μm and 70×70×1000 μm, respectively.
In a second study, virgin Sprague-Dawley rats were bilaterally ovariectomized (except for the sham-operated group), the ovariectomized animals randomized, and allowed to lose bone for one month prior to treatment in the manner described above. […]

[1] = tested on: osteopenic ovariectomized rats; assay: Static and dynamic histomorphometry of L-1 vertebra; conditions: OVX rats; for BFR/BS (bone formation rate) / BFR/TV (bone formation rate) / BV/TV (cancellous bone volume) / MAR (mineral apposition rate) / MS/BS (mineralizing surface) / Tb.N (trabecular number) / Tb.Sp (trabecular separation) / Tb.Th (trabecular thickness): L-1 vertebra, mean ± SEM; for BV/TV, trabecular thickness, trabecular number of L-1 vertebra (in words): second study; for MAR of L-1 vertebra (in words): compound 1a 0.01-1 mg/kg, EE2
Procedure: Oral administration was by gavage in a vehicle comprising 1 mL/kg of body weight of a 20% aqueous solution of hydroxypropyl-β-cyclodextrin. Compound 1a was administered by gavage in a vehicle of 1 mL/kg of body weight of a 20% aqueous solution of cyclodextrin. The estrogen-treated control animals were administered 0.1 mg/kg/day 17α-ethynyl estradiol by gavage.
Subcutaneous administration of PTH(1-34) was by injection of an acidified saline vehicle (0.001 N HCl and 2% heated-inactivated rat serum in physiological saline (Butler Co., Columbus, Ohio, USA).
For histomorphometry, L-1 vertebra were trimmed, using a low-speed diamond saw (Buehler Ltd., Lake Bluff, Ill.) and fixed in 70% ethanol. Specimens were stained for 4 days in Villanueva osteochrome bone stain (Polysciences Inc., Warrington, Pa.), destained, dehydrated in a graded series of alcohols, and defatted in acetone. L-1 vertebra were then infiltrated with methyl methacrylate (as described by Schenk et al. 1984) and embedded in a 75 ml: 19 ml: 2.5 g mixture of methyl methacrylate: dibutyl phthalate: benzoyl peroxide (Kodak, Rochester, N.Y.) and polymerized at room temperature. Longitudinal sections (4 and 8 μm) were cut on a Reichert-Jung 2065 microtome (Magee Scientific Inc., Dexter, Mich.). The 4 μm sections were stained with 6% silver nitrate (Von Kossa stain) before coverslipping; the 8 μm thick sections were mounted unstained for dynamic measurements. Sections were glued onto slides dipped in 0.5% gelatin, dried overnight, and coverslipped with Eukitt.
Histomorphometric measurements were made using an Optiphot-2 fluorescence microscope (Nikon, Melville, N.Y.) and a semi-automatic digitizing system (SummaSketch III, Summagraphics Co., Seymour, Conn.; KSS Image Analysis, KSS Scientific Consultants, Magna Utah) coupled to a PowerPC 7100/66 (Apple Computer, Cupertino, Calif.), using the image capture functions of NIH Image 1.59 (NIH, Bethesda, Md.). For L-1, the entire marrow region within the cortical shell was measured to derive trabecular bone parameters. Specifically, measurements were made of cancellous bone volume (BV/TV, %), trabecular thickness (Tb.Th, μm), number (Tb.N, #/mm) and separation (Tb.Sp, μm), mineralizing surface, mineral apposition rate, and bone formation rate, as previously described (Frost 1983; Jee et al. 1985; Parfitt et al., 1987).
(§2) In a second study, virgin Sprague-Dawley rats were bilaterally ovariectomized (except for the sham-operated group), the ovariectomized animals randomized, and allowed to lose bone for one month prior to treatment in the manner described above. The animal groups, each containing 7-8 animals, included sham-operated animals (SHAM); bilaterally ovariectomized animals (OVX); bilaterally ovariectomized animals treated with 0.01, 0.3 or 1 mg/kg/day of compound 1a, respectively, for three months; bilaterally ovariectomized animals treated subcutaneously with PTH(1-34) at a dose of 10 μg/kg/day for three months; bilaterally ovariectomized animals treated subcutaneously with PTH(1-34) at a dose of 10 μg/kg/day and orally with compound 1a at a dose of 0.3 mg/kg/day, both compounds administered for three months; bilaterally ovariectomized animals treated subcutaneously with PTH(1-34) at a dose of 10 μg/kg/day for forty-five days followed by gavage administration of vehicle for forty-five days; bilaterally ovariectomized animals treated subcutaneously with PTH(1-34) at a dose of 10 μg/kg/day for forty-five days followed by oral administration of only compound 1a at a dose of 0.3 mg/kg/day for forty-five days; and bilaterally ovariectomized animals treated with 17α-ethynyl estradiol administered orally at a dose of 0.1 mg/kg/day.

[2] = tested on: osteopenic ovariectomized rats; assay: Longitudinal pQCT of proximal tibial metaphysis; conditions: OVX rats, FIG. 1
Procedure: as §1, §2
In the second study, the proximal tibial metaphysis was scanned longitudinally by pQCT for rats from baseline.
Treatment, as indicated, was initiated after 1 month postovariectomy and continued for the following 3 months. Specifically, administration of compound 1a alone(closed triangles), PTH (1-34) alone (open triangles), in combination (closed squares), or in sequence (closed diamonds) were compared to OVX (open circles), Sham (closed circles), and estrogen (EE2, open diamonds) controls.

[3] = Cmpd 1a 0.01 mg/kg/day oral, 3 months
[4] = Cmpd 1a 0.3 mg/kg/day oral, 3 months
[5] = Cmpd 1a 1 mg/kg/day oral, 3 months
[6] = treated continuously 3 months (90 days), at termination, 1a 0.01, 0.3, 1.0 mg/kg, EE2 0.1 mg/kg, PTH (1-34) 10 μg/kg
[7] = 3 months: PTH (1-34) 10 μg/kg/day s.c., PTH + 1a 0.3 mg/kg/day oral, EE2 0.1 mg/kg/day oral
[8] = PTH (1-34) 10 μg/kg/day s.c. 45 days, then vehicle or 1a 0.3 mg/kg/day oral 45 days

## COc1ccc(-c2sc3cc(O)ccc3c2Oc2ccc(OCCN3CCCCC3)cc2)cc1 [Compound 1a, 6-hydroxy-2-(4-methoxyphenyl)-3-[4-(2-piperidin-1-ylethoxy)phenoxy]-benzo[b]thiophene]
Osteopenic rats
  BMD of distal femur metaphysis (micro-CT): prevented further bone loss
[1]; [3]
  BFR/BS (bone formation rate): 11.45 ± 1.9 μ/d × 100
  BFR/TV (bone formation rate): 40.30 ± 11.41 %/y
  BV/TV (cancellous bone volume): 24.4 ± 5.9^s %
  MAR (mineral apposition rate): 0.72 ± .06 μ/d
  MS/BS (mineralizing surface): 15.90 ± 2.21^s.o %
  Tb.N (trabecular number): 5.77 ± 1.2^s #/mm
  Tb.Sp (trabecular separation): 137.6 ± 37^s μ
  Tb.Th (trabecular thickness): 42.4 ± 6 μ
[1]; [4]
  BFR/BS (bone formation rate): 9.48 ± 1.43^o μ/d × 100
  BFR/TV (bone formation rate): 35.51 ± 9.14 %/y
  BV/TV (cancellous bone volume): 22.3 ± 3^s %
  MAR (mineral apposition rate): 0.66 ± .11 μ/d
  MS/BS (mineralizing surface): 14.47 ± 1.78^o %
  Tb.N (trabecular number): 6.07 ± .87^s #/mm
  Tb.Sp (trabecular separation): 131 ± 23^s.o μ
  Tb.Th (trabecular thickness): 36.8 ± 3^s μ
[1]; [5]
  BFR/BS (bone formation rate): 9.44 ± 2.4^o μ/d × 100
  BFR/TV (bone formation rate): 29.94 ± 8.7 %/y
  BV/TV (cancellous bone volume): 22.1 ± 5.2^s %
  MAR (mineral apposition rate): 0.72 ± .08 μ/d
  MS/BS (mineralizing surface): 13.05 ± 2.44^s %
  Tb.N (trabecular number): 5.24 ± .82^s #/mm
  Tb.Sp (trabecular separation): 153.1 ± 35^s μ
  Tb.Th (trabecular thickness): 42.4 ± 7.3 μ
[1]; continuous treatment
  dynamic parameters MS/BS, MAR, BFR/BS, BFR/TV of L-1 vertebra (in words): decreased MS/BS and BFR in a dose-dependent manner to Sham and EE2 levels
  BV/TV, trabecular thickness, trabecular number of L-1 vertebra (in words): little effect on BV/TV, trabecular thickness, or trabecular number
  MAR of L-1 vertebra (in words): not different from OVX
[2]; [6]
  volumetric BMD of proximal tibial metaphysis (pQCT): prevented further bone loss and had BMD significantly greater than OVX at termination

## PTH: N-terminal 1-34 fragment of human parathyroid hormone, hPTH(1-34, Sequence ID No. 3); PTH/vehicle = 45 days PTH then vehicle
Osteopenic rats
  BMD of distal femur metaphysis (micro-CT): increased BMD was observed to levels significantly beyond OVX, Sham, and baseline levels
[1]; [7]
  BFR/BS (bone formation rate): 25.1 ± 5^s,o μ/d × 100
  BFR/TV (bone formation rate): 94.5 ± 29.7^s.o %/y
  BV/TV (cancellous bone volume): 38.9 ± 9^o %
  MAR (mineral apposition rate): 1.0 ± .11^s,o μ/d
  MS/BS (mineralizing surface): 24.82 ± 2.62^s,o %
  Tb.N (trabecular number): 6.07 ± .86^s #/mm
  Tb.Sp (trabecular separation): 104.1 ± 29^o μ
  Tb.Th (trabecular thickness): 63.8 ± 11^s,o μ
[1]; [8]
  BFR/BS (bone formation rate): 17.68 ± 5.9^s μ/d × 100
  BFR/TV (bone formation rate): 55.17 ± 20.3^s %/y
  BV/TV (cancellous bone volume): 20.1 ± 3.9^s %
  MAR (mineral apposition rate): 0.89 ± .09^s,o μ/d
  MS/BS (mineralizing surface): 19.62 ± 4.88^s %
  Tb.N (trabecular number): 5.16 ± .98^s #/mm
  Tb.Sp (trabecular separation): 160 ± 32^s μ
  Tb.Th (trabecular thickness): 39.4 ± 7^s μ
[1]; PTH (1-34) discontinued (PTH/v) or switched to compound 1a (PTH/0.3) at 45 days
  dynamic parameters MS/BS, MAR, BFR/BS, BFR/TV of L-1 vertebra (in words): lowered MS/BS, BFR/BS and BFR/TV to OVX levels
[1]; PTH (1-34) discontinued or switched to compound 1a at 45 days
  BV/TV and trabecular thickness of L-1 vertebra (in words): decreased BV/TV and trabecular thickness to below Sham
[1]; continuous treatment
  dynamic parameters MS/BS, MAR, BFR/BS, BFR/TV of L-1 vertebra (in words): increased MS/BS, MAR, BFR/BS and BFR/TV to significantly above Sham and OVX
  BV/TV, trabecular thickness, trabecular number of L-1 vertebra (in words): improved BV/TV and trabecular thickness above OVX
[2]; PTH (1-34) 45 days then discontinued or switched to compound 1a, at termination
  volumetric BMD of proximal tibial metaphysis (pQCT): BMD decreased to significantly below Sham
[2]; after PTH (1-34) for 45 days
  volumetric BMD of proximal tibial metaphysis (pQCT): regained BMD to Sham levels

## C#C[C@]1(O)CC[C@H]2[C@@H]3CCc4cc(O)ccc4[C@H]3CC[C@@]21C [EE2, 17α-ethynyl estradiol]
Osteopenic rats
  BMD of distal femur metaphysis (micro-CT): prevented further bone loss
[1]; [7]
  BFR/BS (bone formation rate): 8.76 ± 1.99^o μ/d × 100
  BFR/TV (bone formation rate): 32.76 ± 6.9 %/y
  BV/TV (cancellous bone volume): 21.8 ± 4.1^s %
  MAR (mineral apposition rate): 0.58 ± .05^s.o μ/d
  MS/BS (mineralizing surface): 14.97 ± 3.07^o %
  Tb.N (trabecular number): 6.20 ± .66 #/mm
  Tb.Sp (trabecular separation): 127.5 ± 17.5 μ
  Tb.Th (trabecular thickness): 35.3 ± 5.6^s μ
[1]; continuous treatment
  BV/TV, trabecular thickness, trabecular number of L-1 vertebra (in words): little effect on BV/TV, trabecular thickness, or trabecular number
  MAR of L-1 vertebra (in words): lowered MAR to below OVX, Sham, and compound 1a
[2]; [6]
  volumetric BMD of proximal tibial metaphysis (pQCT): BMD significantly greater than OVX at termination
